Where a name gives a salt, the structure may show the parent alone.
Key:
α-adrenergic = conditions: in the form of its hydrochloride; Eur. J. Med. Chem. 22 (6), 539-544; cited from earlier work
5-HT1 receptor = test: Affinity for the 5-HT1 receptor (receptor-bonding, 3H-serotonin, calf hippocampus membranes); format: binding; conditions: calf hippocampus membrane preparations, 3H-serotonin as radioligand
Method: The high affinity of the compounds according to the invention for 5-hydroxytryptamine receptors of the subtype 1 is shown by way of example in Table [A]. The values stated are data which were determined from receptor-bonding studies using calf hippocampus membrane preparations. ^3 H-Serotonin was used as the radioactively labelled ligand for this purpose.

Dopamine D2 receptor = biological target: T1, Dopamine D2 receptor (Rattus norvegicus, UniProt P61169); test: Dopamine D2 receptor test (3H-sulpiride bonding, rat striatum membranes); format: binding; conditions: Ki calculated from IC50 of displacement curves
T1 construct: membranes from the striatum of the rat; from tissue; host or cells: rat striatum membranes
Method: This test is carried out in accordance with the following literature reference: Imafuku J. (1987), Brain Research 402; 331-338.
The bonding of the selective D2 receptor antagonist ^3 H-sulpiride to membranes from the striatum of the rat is measured here. Compounds which bond to dopamine D2 receptors inhibit the bonding of ^3 H-sulpiride as a function of the concentration. IC50 values are determined from the displacement curves, and the inhibition constants Ki are calculated from these.

5-HT1A receptor = biological target: T2, 5-HT1A receptor (Bos taurus, UniProt F6Q2H9); test: Affinity for the 5-HT1A receptor (3H-ipsapirone bonding, calf hippocampus membranes); format: binding
T2 construct: 5-HT1A receptors in calf hippocampus membranes; from tissue; host or cells: calf hippocampus membranes
T2 sequence (F6Q2H9 1-422): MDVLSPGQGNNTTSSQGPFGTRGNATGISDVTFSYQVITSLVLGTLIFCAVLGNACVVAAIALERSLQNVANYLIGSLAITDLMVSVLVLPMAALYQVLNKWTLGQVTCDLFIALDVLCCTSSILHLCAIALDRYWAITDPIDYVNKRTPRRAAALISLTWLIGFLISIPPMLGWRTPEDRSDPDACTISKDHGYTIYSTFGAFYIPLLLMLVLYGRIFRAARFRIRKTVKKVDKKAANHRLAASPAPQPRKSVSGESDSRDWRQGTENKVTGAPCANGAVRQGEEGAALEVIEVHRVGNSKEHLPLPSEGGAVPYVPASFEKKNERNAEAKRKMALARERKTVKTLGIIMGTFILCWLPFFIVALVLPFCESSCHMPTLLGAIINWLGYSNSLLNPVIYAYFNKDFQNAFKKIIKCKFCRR
Method: [W. U. Dompert et al., Naunyn-Schmiedeberg's Arch. Pharmacol. (1985), 328, 467-470].
The bonding of ^3 H-ipsapirone to 5-HT1A receptors in calf hippocampus membranes is measured in this test.

T1 sequence (P61169 whole entry): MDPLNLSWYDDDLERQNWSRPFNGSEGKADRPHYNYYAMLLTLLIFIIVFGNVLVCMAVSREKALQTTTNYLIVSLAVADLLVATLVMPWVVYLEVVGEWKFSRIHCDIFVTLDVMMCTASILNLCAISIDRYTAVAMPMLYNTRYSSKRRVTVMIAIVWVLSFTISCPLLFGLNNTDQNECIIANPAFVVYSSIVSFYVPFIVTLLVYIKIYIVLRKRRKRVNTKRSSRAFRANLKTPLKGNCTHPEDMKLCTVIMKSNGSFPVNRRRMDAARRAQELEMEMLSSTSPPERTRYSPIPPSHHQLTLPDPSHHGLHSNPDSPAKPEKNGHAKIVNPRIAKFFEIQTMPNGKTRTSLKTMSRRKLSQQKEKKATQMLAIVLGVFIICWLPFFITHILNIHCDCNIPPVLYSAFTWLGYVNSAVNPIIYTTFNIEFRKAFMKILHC

## c1ccc2c(c1)CCC(CN1CCCCC1)O2 (centres unmarked) [1-[(3,4-dihydro-2H-1-benzopyran-2-yl)methyl]piperidine]
α-adrenergic
  α-adrenergic blocking action: having an α-adrenergic blocking action

## COc1cccc2c1OC(CN1CCC(O)(c3ccc(Cl)cc3)CC1)CC2 (centres unmarked) [Example 1, 2-[4-(4-Chlorophenyl)-4-hydroxy-piperidin-1-yl]methyl-8-methoxy-chroman hydrochloride]
5-HT1 receptor
  Ki: 22 nM

## OC1(c2ccc(Cl)cc2)CCN(CC2CCc3ccccc3O2)CC1 (centres unmarked) [Example 4]
Dopamine D2 receptor
  Ki: 2.5 nM
5-HT1 receptor
  Ki: 76 nM

## COc1cccc2c1OC(CN1CCC(c3ccccc3)(c3ccccc3)CC1)CC2 (centres unmarked) [Example 5]
5-HT1A receptor
  Ki: 9.9 nM

## OC1(c2ccc(Cl)c(C(F)(F)F)c2)CCN(CC2CCc3ccccc3O2)CC1 (centres unmarked) [Example 8]
Dopamine D2 receptor
  Ki: 0.9 nM

## COc1cccc2c1OC(CN1CCC(O)(c3cccc(C(F)(F)F)c3)CC1)CC2 (centres unmarked) [Example 9]
5-HT1A receptor
  Ki: 6 nM

## OC1(c2cccc(C(F)(F)F)c2)CCN(CC2CCc3ccccc3O2)CC1 (centres unmarked) [Example 10]
Dopamine D2 receptor
  Ki: 2.3 nM

Reference: patent publication US5326771A, “Piperidylmethyl-substituted chroman derivatives” (Bayer Aktiengesellschaft, priority 1991, dated 1994)
